Data on 32 molecules can be found in patent US11420944B2, “Voltage-dependent t-type calcium channel blocker” (Nippon Chemiphar Co., Ltd., priority 2016, dated 2022).

SMILES strings stand for the structures. Where a name gives a salt, the structure may show the parent alone. Read-outs that look alike come from different tables or passages of the source. Where only a bound is given, the exact number is not on record here.

This assay addresses T1, human Cav3.2 channels (Homo sapiens, UniProt O95180).
T1 construct: expressed in transfected cells; host or cells: HEK293 cells (ATCC No. CRL-1573), plasmid pcDNA3.1(+)
The assay is described as follows: Intracellular calcium concentration measurement (Fluo-4 AM) in stable cells expressing human Cav3.2 channels, buffer A / buffer B. The class given is cell-based. The source says: Construction of Stable Cells Expressing Human Cav3.2 Channels
(1) A sequence produced by incorporating HindIII site and kozak sequence (GCCACC) into the 5′-terminal side of human Cav3.2 channel ORF (Open Reading Frame) gene and incorporating Kpnl site into the 3′-terminal side was incorporated into pcDNA3.1(+) (Thermo-Fisher Scientific, Inc., #V790-20), and the plasmid was transfected into HEK293 cells (ATCC No. CRL-1573) according to the protocol of FuGENE (registered trademark) HD Transfection Reagent (PROMEGA #E2311).
(2) Method for Measuring Intracellular Calcium Concentration
In the present measurement system, buffer A and buffer B having different potassium ion concentrations were used in order to evaluate the state-dependent Cav3.2 inhibitory action of a test compound.
Stable cell line expressing human Cav3.2 channels, which had been produced in (1), was seeded in a 96-well plate using DMEM medium including 10% FBS, and the cells were cultured for 48 hours under the conditions of 37° C. and 5% CO2. Subsequently, the medium was removed, and various wells that had been washed with a base buffer were treated with 80 μL of a fluorescent dye solution containing a mixed liquid of 22 μg of calcium fluorescence indicator Fluo-4 AM (Dojindo Laboratories Co., Ltd., #F311), 20 μL of DMSO, […] of 10% Pluronic F-127 (Thermo-Fisher Scientific, Inc., #P6866), and 4 mL of a base buffer. The cells were left to stand for 45 minutes at room temperature in the dark, and then the cells were washed with buffer A or buffer B. Solutions having various test compound concentrations and respectively containing buffer A or buffer B were added to the respective wells, the respective solutions containing DMSO at the same final concentration as that of the test compound as negative control, or containing the test compound dissolved in 100% DMSO at a final concentration of 0.1%. The cells were left to stand for another 15 minutes at room temperature in the dark, and the cells were analyzed using the following method using a microplate reader, EnVision (PerkinElmer, Inc.). First, the background fluorescence for each well was measured, subsequently an ionophore was added to the well, and the fluorescence of the baseline was measured. Subsequently, buffer A or buffer B containing added KCl at a concentration of 83.8 mM or 91.8 mM was added to each well, and an increase in fluorescence caused by a calcium influx generated by that stimulus was measured for 10 seconds. The percentage inhibition was calculated from the maximum fluorescence increment from the baseline, and the logarithmic value of the test compound concentration and the inhibitory activity were plotted to calculate the IC50 value. The analysis was carried out by measuring the fluorescence at 510 nm emitted when the cells were irradiated with exciting light at 485 nm.
Base buffer: 140 mM NaCl, 5 mM KCl, 1 mM MgCl2, 0.5 mM CaCl2, 10 mM Glucose, and 10 mM HEPES, pH 7.3
Buffer A: Equilibrium potential of potassium: −92 mV
In general terms: A change in cytosolic calcium serves as a functional read-out for many receptors and channels.

The mark [1] stands for this setting: Tables 2 to 6, buffer A, equilibrium potential of potassium −92 mV, read-out: Inhibitory action of buffer A (inactivated state).
[2] abbreviates: Table 1, buffer A, equilibrium potential of potassium −92 mV, read-out: Inhibitory action of buffer A (inactivated state).
Where [3] appears, read: Table 1, buffer B, equilibrium potential of potassium −110 mV, read-out: Inhibitory action of buffer B (resting state or closed state).

T1 sequence (O95180 whole entry): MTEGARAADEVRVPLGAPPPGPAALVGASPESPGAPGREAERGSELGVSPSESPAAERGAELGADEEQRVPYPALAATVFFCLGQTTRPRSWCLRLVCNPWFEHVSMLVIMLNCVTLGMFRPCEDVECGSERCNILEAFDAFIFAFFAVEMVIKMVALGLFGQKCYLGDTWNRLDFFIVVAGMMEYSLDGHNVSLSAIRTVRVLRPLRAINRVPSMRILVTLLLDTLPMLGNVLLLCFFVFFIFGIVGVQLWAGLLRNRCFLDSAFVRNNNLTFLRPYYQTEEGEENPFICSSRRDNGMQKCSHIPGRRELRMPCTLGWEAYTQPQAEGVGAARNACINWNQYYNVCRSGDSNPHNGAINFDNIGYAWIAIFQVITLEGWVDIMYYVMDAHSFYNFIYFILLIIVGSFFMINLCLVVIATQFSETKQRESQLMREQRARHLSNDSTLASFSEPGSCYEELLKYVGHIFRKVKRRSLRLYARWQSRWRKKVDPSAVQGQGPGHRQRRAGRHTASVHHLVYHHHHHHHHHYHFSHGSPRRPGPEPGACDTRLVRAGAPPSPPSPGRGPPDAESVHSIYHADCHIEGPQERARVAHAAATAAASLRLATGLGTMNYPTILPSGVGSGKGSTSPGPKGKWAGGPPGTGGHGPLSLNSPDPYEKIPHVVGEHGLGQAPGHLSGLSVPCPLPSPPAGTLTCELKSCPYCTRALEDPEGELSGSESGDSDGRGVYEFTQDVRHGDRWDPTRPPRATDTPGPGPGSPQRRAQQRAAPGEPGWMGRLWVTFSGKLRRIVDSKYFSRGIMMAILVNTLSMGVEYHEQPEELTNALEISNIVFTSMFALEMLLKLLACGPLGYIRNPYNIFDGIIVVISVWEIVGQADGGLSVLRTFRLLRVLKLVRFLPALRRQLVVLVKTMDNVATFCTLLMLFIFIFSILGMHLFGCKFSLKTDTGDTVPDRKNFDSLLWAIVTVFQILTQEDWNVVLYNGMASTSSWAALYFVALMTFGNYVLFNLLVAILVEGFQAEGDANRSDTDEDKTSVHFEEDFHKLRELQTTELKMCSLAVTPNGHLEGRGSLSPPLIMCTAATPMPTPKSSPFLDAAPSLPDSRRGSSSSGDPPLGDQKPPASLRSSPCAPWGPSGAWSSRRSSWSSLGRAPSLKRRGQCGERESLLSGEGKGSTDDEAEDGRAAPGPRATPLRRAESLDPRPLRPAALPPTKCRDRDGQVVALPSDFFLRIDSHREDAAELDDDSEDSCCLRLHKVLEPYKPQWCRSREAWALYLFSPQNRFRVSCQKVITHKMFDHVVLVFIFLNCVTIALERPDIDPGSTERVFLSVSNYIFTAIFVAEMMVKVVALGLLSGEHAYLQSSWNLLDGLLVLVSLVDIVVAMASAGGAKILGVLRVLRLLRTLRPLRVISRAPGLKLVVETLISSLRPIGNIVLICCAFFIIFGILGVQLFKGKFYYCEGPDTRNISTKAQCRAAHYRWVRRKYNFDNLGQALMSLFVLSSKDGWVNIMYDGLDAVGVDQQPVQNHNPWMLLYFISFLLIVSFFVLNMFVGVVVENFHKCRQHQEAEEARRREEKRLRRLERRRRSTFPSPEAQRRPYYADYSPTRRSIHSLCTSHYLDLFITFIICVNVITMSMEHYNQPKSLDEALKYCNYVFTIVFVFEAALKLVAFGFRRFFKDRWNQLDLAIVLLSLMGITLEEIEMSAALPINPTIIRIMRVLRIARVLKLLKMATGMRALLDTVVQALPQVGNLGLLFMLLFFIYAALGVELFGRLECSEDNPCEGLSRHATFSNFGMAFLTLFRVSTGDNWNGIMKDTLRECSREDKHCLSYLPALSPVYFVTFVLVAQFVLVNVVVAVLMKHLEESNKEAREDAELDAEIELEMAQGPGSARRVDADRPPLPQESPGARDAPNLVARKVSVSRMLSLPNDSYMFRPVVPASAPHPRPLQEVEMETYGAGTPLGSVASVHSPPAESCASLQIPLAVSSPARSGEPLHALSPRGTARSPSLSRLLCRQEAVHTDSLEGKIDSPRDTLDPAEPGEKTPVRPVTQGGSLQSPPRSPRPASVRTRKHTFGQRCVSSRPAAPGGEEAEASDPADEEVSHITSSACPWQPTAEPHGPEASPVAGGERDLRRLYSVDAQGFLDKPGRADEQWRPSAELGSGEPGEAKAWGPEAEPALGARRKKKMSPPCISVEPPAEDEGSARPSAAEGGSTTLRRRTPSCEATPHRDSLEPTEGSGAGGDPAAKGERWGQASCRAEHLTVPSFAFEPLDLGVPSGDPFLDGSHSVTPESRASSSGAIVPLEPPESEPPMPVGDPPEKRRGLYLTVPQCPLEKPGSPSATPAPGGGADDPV

As to `C[C@@H](NC(=O)[C@@H]1CCN(c2nc3ccccc3s2)C1)c1cc2cc(F)ccc2o1` [Example 126, (R)-1-(benzo[d]thiazol-2-yl)-N—((R)-1-(5-fluorobenzofuran-2-yl)ethyl)pyrrolidine-3-carboxamide], the IC50 under setting [1] was 100 to 1000 nM.
Turning to `C[C@@H](NC(=O)C1CC1c1nc2cc(Cl)cnc2[nH]1)c1ccc(OCC(F)(F)F)s1` (single isomer, unassigned) [Example 85B], the IC50 under setting [1] is greater than 10000 nM.
Same read-out and setting: the same measure for `C[C@@H](NC(=O)C1CC1c1cc(F)cc(F)c1)c1ccc(OCC(F)(F)F)s1` (single isomer, unassigned) [Example 19A]: greater than 10000 nM; for `C[C@@H](NC(=O)C1CC1c1ccccn1)c1ccc(OCC(F)(F)F)s1` (single isomer, unassigned) [Example 23B]: greater than 10000 nM.
On to `C[C@@H](NC(=O)C1CC1c1nc2ccccc2[nH]1)c1ccc(Br)s1` (single isomer, unassigned) [Example 6A], for which the IC50 by setting is: under setting [2], 100 to 1000 nM; under setting [3], 1000 to 10000 nM.
Take `C[C@@H](NC(=O)C1CC1c1nc2cc(Cl)ccc2[nH]1)c1nc(C2CC2)no1` (single isomer, unassigned) [Example 77B]: under setting [1], the IC50 lay within 1000 to 10000 nM.
For the molecule `C[C@@H](NC(=O)[C@H]1C[C@@H]1c1nc2ccccc2[nH]1)c1cnc(-c2ccccc2)s1` [Example 89, (1S,2S)-2-(1H-benzo[d]imidazol-2-yl)-N—((R)-1-(2-phenylthiazol-5-yl)ethyl)cyclopropane-1-carboxamide], the IC50 under setting [1] was 100 to 1000 nM.
With `C[C@@H](NC(=O)C1CC1c1nc2ccccc2[nH]1)c1ccc(C(F)(F)F)s1` (single isomer, unassigned) [Example 5B], the IC50 lay within 1000 to 10000 nM under setting [2] and 1000 to 10000 nM under setting [3].
Regarding `CCn1c([C@H]2C[C@@H]2C(=O)N[C@H](C)c2cc3ccc(F)cc3o2)nc2ccccc21` [Example 110, (1S,2S)-2-(1-ethyl-1H-benzo[d]imidazol-2-yl)-N—((R)-1-(6-fluorobenzofuran-2-yl)ethyl)cyclopropane-1-carboxamide], under setting [1], the IC50 is no more than 100 nM.
On the same count and under the same terms, the figure for `C[C@@H](NC(=O)C1CC1COc1ccc(F)cc1)c1cc2cc(F)ccc2o1` (single isomer, unassigned) [Example 112A] is 1000 to 10000 nM; for `C[C@@H](NC(=O)C1CC1c1nc2cc(Cl)ccc2o1)c1cc2cc(F)ccc2o1` (single isomer, unassigned) [Example 108A] it is 100 to 1000 nM; for `C[C@@H](NC(=O)C1CC1c1nc2cc(Cl)ccc2[nH]1)c1ccc(OCC(F)(F)F)s1` (single isomer, unassigned) [Example 53A] it is no more than 100 nM.
Still for that read-out and setting: the figure for `C[C@@H](NC(=O)C1CC1c1nc2ccccc2[nH]1)c1ccc(C(=O)O)s1` (single isomer, unassigned) [Example 27] is greater than 10000 nM; for `C[C@@H](NC(=O)C1CC1c1nccn1Cc1ccccc1)c1ccc(OCC(F)(F)F)s1` (single isomer, unassigned) [Example 38B] it is greater than 10000 nM.
`C[C@@H](NC(=O)C1CC1c1nc2ccccc2[nH]1)c1ccc(Br)s1` (single isomer, unassigned) [Example 6B]: the IC50 is 1000 to 10000 nM under setting [2] and greater than 10000 nM under setting [3].
Consider `C[C@@H](NC(=O)[C@@H]1CCN(CC(=O)Nc2nccs2)C1)c1ccc(OCC(F)(F)F)s1` [Example 16, (R)-1-(2-oxoethyl-2-(thiazol-2-ylamino)ethyl)-N—((R)-1-(5-(2,2,2-trifluoroethoxy)thiophen-2-yl)ethyl)pyrrolidine-3-carboxamide], for which the IC50 under setting [2] is 100 to 1000 nM and the IC50 under setting [3] was 1000 to 10000 nM.
`Cc1ccc2nc(C3CC3C(=O)N[C@H](C)c3ccc(OCC(F)(F)F)s3)[nH]c2n1` (single isomer, unassigned) [Example 106A]: under setting [1], the IC50 lay in the range of 1000 to 10000 nM.
On the same count and under the same terms, the figure for `COc1ccc2[nH]c(C3CC3C(=O)N[C@H](C)c3ccc(OCC(F)(F)F)s3)nc2c1` (single isomer, unassigned) [Example 71B] is 100 to 1000 nM; for `C[C@@H](NC(=O)C1CC1c1nc(-c2ccccc2)c[nH]1)c1ccc(OCC(F)(F)F)s1` (single isomer, unassigned) [Example 31B] it is 100 to 1000 nM; for `C[C@@H](NC(=O)C1CC1c1nc2cc(Cl)cnc2[nH]1)c1ccc(OCC(F)(F)F)s1` (single isomer, unassigned) [Example 85A] it is 1000 to 10000 nM.
Take `C[C@@H](NC(=O)[C@H]1CCN(CC(=O)NC(C)(C)C)C1)c1ccc(OCC(F)(F)F)s1` [Example 14, (S)-1-(2-(tert-butylamino)-2-oxoethyl)-N—((R)-1-(5-(2,2,2-trifluoroethoxy)thiophen-2-yl)ethyl)pyrrolidine-3-carboxamide hydrochloride]: the IC50 lay within 1000 to 10000 nM under setting [2] and 1000 to 10000 nM under setting [3].
For the molecule `C[C@H](NC(=O)C1CC1c1nc2ccccc2[nH]1)c1cnc(OCC(F)(F)F)s1` (single isomer, unassigned) [Example 7B], the IC50 by setting is: under setting [2], 1000 to 10000 nM; under setting [3], greater than 10000 nM.
For `C[C@@H](NC(=O)C1CC1c1nc2ccccc2[nH]1)c1ccc(OCC(F)(F)F)s1` (single isomer, unassigned) [Example 3B], in that order: 1000 to 10000 nM and 1000 to 10000 nM.
On to `C[C@@H](NC(=O)[C@H]1C[C@@H]1c1nc2ccccc2[nH]1)c1cc2cccc(F)c2o1` [Example 96, (1S,2S)-2-(1H-benzo[d]imidazol-2-yl)-N—((R)-1-(7-fluorobenzofuran-2-yl)ethyl)cyclopropane-1-carboxamide], for which the IC50 under setting [1] fell in the range of 100 to 1000 nM.
Same read-out and setting: the same measure for `COc1ccc2[nH]c(C3CC3C(=O)N[C@H](C)c3ccc(OCC(F)(F)F)s3)nc2c1` (single isomer, unassigned) [Example 71A]: 100 to 1000 nM; for `C[C@@H](NC(=O)C1CC1c1ccc2cnn(C)c2c1)c1ccc(OCC(F)(F)F)s1` (single isomer, unassigned) [Example 22B]: 100 to 1000 nM; for `C[C@@H](NC(=O)C1CC1c1nccn1Cc1ccccc1)c1ccc(OCC(F)(F)F)s1` (single isomer, unassigned) [Example 38A]: greater than 10000 nM.
Regarding `C[C@@H](NC(=O)[C@H]1C[C@@H]1c1nc2ccccc2[nH]1)c1cc2c(F)cccc2o1` [Example 97, (1S,2S)-2-(1H-benzo[d]imidazol-2-yl)-N—((R)-1-(4-fluorobenzofuran-2-yl)ethyl)cyclopropane-1-carboxamide], the IC50 under setting [1] is 100 to 1000 nM.
`C[C@@H](NC(=O)C1CC1c1ccc2ccccc2n1)c1ccc(Br)s1` (single isomer, unassigned) [Example 45]: under setting [1], the IC50 lay in the range of 100 to 1000 nM.
Regarding `C[C@@H](NC(=O)[C@H]1C[C@@H]1c1nc2ccccc2[nH]1)c1ccc2c(c1)OCCO2` [Example 70, (1S,2S)-2-(1H-benzo[d]imidazol-2-yl)-N—((R)-1-(2,3-dihydrobenzo[b][1,4]dioxin-6-yl)ethyl)cyclopropane-1-carboxamide], the IC50 under setting [1] is 1000 to 10000 nM.
Still for that read-out and setting: the same measure for `C[C@@H](NC(=O)C1CC1c1ccc2ccccc2n1)c1ccc(OCC(F)(F)F)s1` (single isomer, unassigned) [Example 34B]: 100 to 1000 nM; for `C[C@@H](NC(=O)C1CC1COc1ccc(F)cc1)c1cc2cc(F)ccc2o1` (single isomer, unassigned) [Example 112B]: 100 to 1000 nM.
